Patent US20150045410A1, “METHOD OF REGULATING CFTR EXPRESSION AND PROCESSING” (University of Iowa Research Foundation, priority 2012, published 2015)

Legend:
CFTR-ΔF508 = assay: Immunoblot (HA antibody) in HeLa cells stably expressing HA-tagged CFTR-ΔF508; type: cell-based; settings: CFTR-ΔF508-3HA
Experimental: (Wang, X. et al. Hsp90 cochaperone Aha1 downregulation rescues misfolding of CFTR in cystic fibrosis. Cell 127, 803-815 (2006)): Cell lines or primary cultures were washed with PBS and lysed in freshly prepared lysis buffer (1% Triton, 25 mM Tris pH 7.4, 150 mM NaCl, protease inhibitors (cOmplete™, mini, EDTA-free, Roche)) for 30 min at 4° C. The lysates were centrifuged at 14,000 rpm for 20 min at 4° C., and the supernatant quantified by BCA Protein Assay kit (Pierce). 20 μg (Calu-3) and 50 μg (human primary airway epithelial cultures, HeLa, HEK293T) of protein per lane was separated on a 7% SDS-PAGE gel for western blot analysis. Antibodies were procured for SIN3A (1:1000, R&D Systems), CTCF (1:500, Cell Signaling Technology), CFTR (R-769 (1:2000, CFFT), MM13-4 (1:1000, Millipore), M3A7 (1:500, Millipore), 24-1 (1:1000, R&D Systems)), hemagglutinin (1; 1000, Covance) and α-tubulin (1:10000, Sigma). Protein abundance was quantified by densitometry using an Alphalnnotech Fluorochem Imager (Alphalnnotech). For CFTR, band B and C were quantified separately. All bands were normalized to α-tubulin. Experiments were performed in triplicates per donor and mean and standard error of the mean determined using unpaired two-tailed t-test. […] If signal was detected, the stripping procedure was repeated till no signal was observed. […]

CFTR = CFTR mRNA and protein in polarized primary cultures of human airway epithelia; type: cell-based; settings: mRNA 24 hrs, protein 72 hrs post-transfection
Experimental: Airway epithelia from human trachea and primary bronchus removed from organs donated for research were cultured at the air-liquid interface (ALI) (Karp, P. H. et al. An in vitro model of differentiated human airway epithelia. Methods for establishing primary cultures. Methods Mol. Biol. 188, 115-137 (2002)). These studies were approved by the Institutional Review Board of the University of Iowa. Briefly, airway epithelial cells were dissociated from native tissue by pronase enzyme digestion. Permeable membrane inserts (0.6 cm^2 Millipore-PCF, 0.33 cm^2 Costar-Polyester) pre-coated with human placental collagen (IV, Sigma) were seeded with freshly dissociated epithelia. […]
First-strand cDNA was synthesized using SuperScript® II (Invitrogen), and oligo-dT and random-hexamer primers. […] To quantitate miRNAs, TaqMan® microRNA Assays (Applied Biosystems) were obtained for miR-138, RNU48 (control) and 8 other miRNAs (negative control, miRs-21, -24, -26a, -200c, -146a, -146b, -27a*, -134). […] All experiments were performed in quadruplicate. mRNA and miRNA quantification in cell lines represents 8 independent transfections in 4 separate experiments. mRNA quantification in human primary airway epithelial cultures represent 8 independent transfections in 8 non-CF donors and 4 CF donors. […]

Row | Substance | abundance of the mature, fully glycosylated CFTR band C (CFTR-ΔF508) | CFTR mRNA and protein levels (CFTR)
1 | miR-138 mimic: synthetic modified RNA duplex, sense SEQ ID NO: 4, antisense SEQ ID NO: 5, showing miR-138-like activity | increased | increased
2 | SIN3A DsiRNA: Dicer-substrate siRNA against SIN3A, sense SEQ ID NO: 6, antisense SEQ ID NO: 7 (sense GCGAUACAUGAAUUCAGAUACUACC; antisense GGUAGUAUCUGAAUUCAUGUAUCGCUC; chemistry not given here) | increased | increased
